# Measured values published in US20200368322A1, “METHODS OF IDENTIFYING AND USING AGENTS FOR TREATING DISEASES ASSOCIATED WITH INTESTINAL BARRIER DYSFUNCTION” (Yeda Research and Development Co. Ltd., priority 2018, published 2020).
# “Also recorded” adds a separate entry of the source. No end group written: not given here.
# B1: Fibroblast growth factor 10 (protein, UniProt O15520 38-208, looked up)
# Fibroblast growth factor 10: QALGQDMVSPEATNSSSSSFSSPSSAGRHVRSYNHLQGDVRWRKLFSFTKYFLKIEKNGKVSGTKKENCPYSILEITSVEIGVVAVKAINSNYYLAMNKKGKLYGSKEFNNDCKLKERIEENGYNTYASFNWQHNGRQMYVALNGKGAPRRGQKTRRKNTSAHFLPMVVHS
# B2: Chemokine ligand 23 (protein, UniProt P55773 22-120, looked up)
# C-C motif chemokine 23: RVTKDAETEFMMSKLPLENPVLLDRFHATSADCCISYTPRSIPCSLLESYFETNSECSKPGVIFLTKKGRRFCANPSDKQVQVCMRMLKLDTRIKTRKN
# B3: Fas ligand (protein, UniProt P48023 130-281, looked up)
# Tumor necrosis factor ligand …: QIGHPSPPPEKKELRKVAHLTGKSNSRSMPLEWEDTYGIVLLSGVKYKKGGLVINETGLYFVYSKVYFRGQSCNNLPLSHKVYMRNSKYPQDLVMMEGKMMSYCTTGQMWARSSYLGAVFNLTSADHLYVNVSELSLVNFEESQTFFGLYKL
# B4: Bone morphogenetic protein 10 (protein, UniProt O95393 317-424, looked up)
# Bone morphogenetic protein 10: NAKGNYCKRTPLYIDFKEIGWDSWIIAPPGYEAYECRGVCNYPLAEHLTPTKHAIIQALVHLKNSQKASKACCVPTKLEPISILYLDKGVVTYKFKYEGMAVSECGCR
# B5: IL-22: human non-inflammatory cytokine (protein, UniProt Q9GZX6 34-179, looked up)
# Interleukin-22: APISSHCRLDKSNFQQPYITNRTFMLAKEASLADNNTDVRLIGEKLFHGVSMSERCYLMKQVLNFTLEEVLFPQSDRFQPYMQEVVPFLARLSNRLSTCHIEGDDLHIQRNVQKLKDTVKKLGESGEIKAIGELDLLFMSLRNACI
# B6: Chemokine ligand 3 (protein, UniProt P10147 24-92, looked up)
# C-C motif chemokine 3: SLAADTPTACCFSYTSRQIPQNFIADYFETSSQCSKPGVIFLTKRSRQVCADPSEEWVQKYVSDLELSA
# What was measured:
# [1] = tested on: tight junctions of Caco2 cells; assay: Caco2 tight junction morphology (cingulin or ZO-1 staining, tortuosity); format: cell-based, human; details: for tight junction disruption phenotype (type 1 zipper-like, type 2 flower-like): known IBD mediators; for tight junctions morphology (cingulin): 50 ng/ml TNFa, 30 ng/ml IL1-b, 100 ng/ml LPS; for tight junction distortion caused by LPS: 10 mM taurine, 1 mM tryptamine, 10 mM L-homo-serine, in combination with LPS; for tight junction morphology: 10 mM acetyl-proline, 1 mM putrescine, 10 mM histamine, 5 mM spermine
# Procedure: (§1) CaCo-2 cells were purchased from ATCC. Cells were routinely grown in regular tissue culture medium (DMEM, 10% FCS, penicillin/streptomycin, GlutaMAX). For experiments with differing glucose concentrations, cells were routinely cultured in low-glucose DMEM (1 g/l glucose). Cells were seeded onto 96-well glass-bottom plates coated with either fibronectin or collagen 70 000 cells/well and allowed to grow for 24 hours to form confluent monolayer before indicated treatments.
# (§2) For high resolution images of manually selected representative fields, a DeltaVision wide field fluorescent microscope (GE Healthcare) equipped with 40×UPlanFLN or 60×/1.42 PlanApo N oil objective (Olympus) was used. For multi-well plate scanning, the following automated imaging stations were used: DeltaVision microscope with plate scanning regiment, Hermes imaging station (IDEA bio-Medical) or ImagExpress microXL imaging station (Molecular Devices) equipped by 40× air objectives. In all cases in order to cover the curvature of apical surface of epithelial monolayer 5 μm thick z-stack was acquired around the tight junction plane (identified by best focus algorithm) and resulting image was generated as a maximum projection of all optical sections.
# (§3) Cell images were segmented using Morphological Segmentation ImageJ plug-in and junction tortuosity was calculated as a ratio between junction length and Euclidian distance between its ends.
# [2] = tested on: tight junctions of Caco2 cells; assay: Human secreted molecules library screen for tight junction modulators; format: cell-based; details: Caco2, 24 hours; ng/ml: TNFa 50, Il-15 25, CCL-20 50, CCL-23 50, FGF-1 25, FGF-10 100, BMP-10 50, UTS-2 10, UCN-1 20, EPO 10, UCN-3 20, IL-21 30, CCL-3 40, TIMP-2 100, FasLG 10
# Procedure: as §1, §3
# A protein library, consisting of 295 human secreted proteins was used for identification of potential modulators of the barrier function of human intestinal epithelial cells.
# Caco2 cells = assay: Traction force microscopy; format: cell-based, human; details: Caco2 islands on polyacrylamide hydrogels, 24 hours treatment
# Procedure: SoftTrac 6 well plates with pre-made collagen coated 12 kPa hydrogels containing embedded 0.2 μm fluorescent beads were purchased from Matrigen. 200,000 cells per well were plated and allowed to grow for 24 hours to form epithelial islands, treated with the indicated metabolite for another 24 hours and live-imaged using DeltaVision microscope equipped with environmental chamber. After acquisition of cell and fluorescent bead images in steady state conditions, cells were detached with trypsin and imaging of beads was repeated in a relaxed state. Displacement map generation and force calculations were performed using MatLab script described in Butler et al. Am J Physiol Cell Physiol. 2002.
# [3] = tested on: focal adhesions of Caco2 cells; assay: Caco2 cell-matrix focal adhesions (paxillin staining); format: cell-based, human; details: for focal adhesions size vs control non treated cells / enlargement of focal adhesions caused by LPS: 1 mM tryptamine, 10 mM L-homo-serine; for enlargement of focal adhesions caused by LPS: with LPS; for focal adhesions size: 10 mM acetyl-proline, 1 mM putrescine, 10 mM histamine, 5 mM spermine
# Procedure: as §1, §2
molecule,measurement,setting,value
TNFa,"tight junction disruption phenotype (type 1 zipper-like, type 2 flower-like)",[1]; Caco2 cells,type 1
same,tight junctions morphology (cingulin),[1]; Caco2 cells,significant alteration in tight junctions morphology
same,TJ morphology (cingulin) in secreted molecules screen,[2],changes in TJ morphology similar to previously observed upon treatment with known pro-inflammatory mediators
NCCc1c[nH]c2ccccc12 [tryptamine],forces applied to the substrate (cell contractility),Caco2 cells,cause cell relaxation
same,recovery of TJ structure on replacement of disruptors with stabilizer,"[1]; CaCo2 cells pretreated with LPS, histamine or putrescine, even in the presence of the disruptors",full recovery of TJ structure
same,effect on tight junctions in metabolite screen,[1]; Caco2 cells,Stabilization
same,tight junction distortion caused by LPS,[1]; Caco2 cells,abolish tight junction distortion caused by LPS treatment alone
same,disrupting activity of dysbiotic fecal extract,"[1]; Caco2 cells, extract combined with 1 mM tryptamine or fecal extract from healthy animals",neutralized
same,focal adhesions size vs control non treated cells,[3],reduction in focal adhesions size
same,enlargement of focal adhesions caused by LPS,[3],prevent enlargement focal adhesions caused by LPS treatment
"Urocortin 3 (FTLSLDVPTNIMNLLFNIAKAKNLRAQAAANAHLMAQI; ends and bridges not checked; UniProt Q969E3 120-157, looked up) [UCN-3]",TJ morphology (cingulin) in secreted molecules screen,[2],changes in TJ morphology similar to previously observed upon treatment with known pro-inflammatory mediators
"Urocortin 1 (DNPSLSIDLTFHLLRTLLELARTQSQRERAEQNRIIFDSV; ends and bridges not checked; UniProt P55089 83-122, looked up) [UCN-1]",TJ morphology (cingulin) in secreted molecules screen,[2],changes in TJ morphology similar to previously observed upon treatment with known pro-inflammatory mediators
Chemokine ligand 20 [CCL-20],TJ morphology (cingulin) in secreted molecules screen,[2],changes in TJ morphology similar to previously observed upon treatment with known pro-inflammatory mediators
NCCCNCCCCNCCCN [spermine],effect on tight junctions in metabolite screen,[1]; Caco2 cells,Disruption
same,"tight junction disruption phenotype (type 1 zipper-like, type 2 flower-like)",[1]; Caco2 cells,type 2
same,tight junction morphology,[1]; Caco2 cells,distortion of tight junction morphology
same,tight junction phenotype in combination with LPS,"[1]; Caco2 cells, type 2 disruptor plus LPS",double effect
same,focal adhesions size,[3],increase of focal adhesions size
Fibroblast growth factor 1 [FGF-1],TJ morphology (cingulin) in secreted molecules screen,[2],changes in TJ morphology similar to previously observed upon treatment with known pro-inflammatory mediators
"Cc1ccc2c(c1)C(=O)C1(O)CCN(c3ccccc3)C1=N2 (stereo not shown) [blebbistatin, reference compound]",forces applied to the substrate (cell contractility),Caco2 cells,cause cell relaxation
same,disruptive effect of LPS and histamine on tight junctions,"[1]; Caco2 cells, co-treatment with 20 μM blebbistatin",abolishes disruptive effect of LPS and histamine on tight junctions
same,focal adhesions enlarged by LPS or histamine,[3]; co-treatment with 20 μM blebbistatin,reduction of focal adhesions
CC(=O)N1CCC[C@H]1C(=O)O [N-acetylproline],effect on tight junctions in metabolite screen,[1]; Caco2 cells,Disruption
same,tight junction morphology,[1]; Caco2 cells,distortion of tight junction morphology
same,focal adhesions size,[3],increase of focal adhesions size
"IL1-b: cytokine, known pro-inflammatory IBD mediator",tight junctions morphology (cingulin),[1]; Caco2 cells,significant alteration in tight junctions morphology
N[C@@H](CCO)C(=O)O [L-homoserine],effect on tight junctions in metabolite screen,[1]; Caco2 cells,Stabilization
same,tight junction distortion caused by LPS,[1]; Caco2 cells,abolish tight junction distortion caused by LPS treatment alone
same,focal adhesions size vs control non treated cells,[3],reduction in focal adhesions size
same,enlargement of focal adhesions caused by LPS,[3],prevent enlargement focal adhesions caused by LPS treatment
Interleukin-21 [IL-21],distortion of tight junctions on co-treatment of stabilizer with disruptor,"[1]; Caco2 cells, cingulin",abolished distortion of tight junctions observed in the treatment with disruptors alone
same,TJ tortuosity on co-treatment of disruptor with stabilizer,"[1]; Caco2 cells, N≥200",reduces tortuosity to the level of untreated control
same,enlargement of focal adhesions on co-treatment with disruptor,[3]; paxilin,prevents enlargement of focal adhesions caused by treatments with disruptors only
same,TJ morphology (cingulin) in secreted molecules screen,[2],improvement of TJ morphology in comparison to non-treated control
Interleukin-15 [Il-15],TJ morphology (cingulin) in secreted molecules screen,[2],changes in TJ morphology similar to previously observed upon treatment with known pro-inflammatory mediators
Tissue metalloprotease inhibitor 2 [TIMP-2],TJ morphology (cingulin) in secreted molecules screen,[2],improvement of TJ morphology in comparison to non-treated control
"Urotensin 2 (ETPDCFWKYCV; ends and bridges not checked; cysteine pairing not given here; UniProt O95399 114-124, looked up) [UTS-2]",TJ morphology (cingulin) in secreted molecules screen,[2],changes in TJ morphology similar to previously observed upon treatment with known pro-inflammatory mediators
B1,TJ morphology (cingulin) in secreted molecules screen,[2],changes in TJ morphology similar to previously observed upon treatment with known pro-inflammatory mediators
B2,TJ morphology (cingulin) in secreted molecules screen,[2],changes in TJ morphology similar to previously observed upon treatment with known pro-inflammatory mediators
B3,TJ morphology (cingulin) in secreted molecules screen,[2],improvement of TJ morphology in comparison to non-treated control
B4,TJ morphology (cingulin) in secreted molecules screen,[2],changes in TJ morphology similar to previously observed upon treatment with known pro-inflammatory mediators
B5,tight junction morphology on co-treatment with pro-inflammatory agents,"[1]; Caco2 cells, 100 ng/ml IL-22 plus TNFa, IL1-b or LPS",blocked; also recorded: completely restored normal tight junction morphology
B6,TJ morphology (cingulin) in secreted molecules screen,[2],improvement of TJ morphology in comparison to non-treated control
